Where a SMILES comes first, the peptide text is derived from it. [ ]: non-standard residue; d: D form. The star is where a group is joined. pY = N[C@@H](Cc1ccc(OP(=O)(O)O)cc1)C(=O)O; Cbz = O=C(OCc1ccccc1)*; NHBn = c1ccc(CN*)cc1
target: Signal transducer and activator of transcription 3 (Homo sapiens, UniProt P40763); experiment: Displacement of fluorescent tagged beta-(Ala)-beta-(Ala)-G-pYLPQTV from human recombinant STAT3 by fluorescence polarization assay
Sequence (P40763 whole entry): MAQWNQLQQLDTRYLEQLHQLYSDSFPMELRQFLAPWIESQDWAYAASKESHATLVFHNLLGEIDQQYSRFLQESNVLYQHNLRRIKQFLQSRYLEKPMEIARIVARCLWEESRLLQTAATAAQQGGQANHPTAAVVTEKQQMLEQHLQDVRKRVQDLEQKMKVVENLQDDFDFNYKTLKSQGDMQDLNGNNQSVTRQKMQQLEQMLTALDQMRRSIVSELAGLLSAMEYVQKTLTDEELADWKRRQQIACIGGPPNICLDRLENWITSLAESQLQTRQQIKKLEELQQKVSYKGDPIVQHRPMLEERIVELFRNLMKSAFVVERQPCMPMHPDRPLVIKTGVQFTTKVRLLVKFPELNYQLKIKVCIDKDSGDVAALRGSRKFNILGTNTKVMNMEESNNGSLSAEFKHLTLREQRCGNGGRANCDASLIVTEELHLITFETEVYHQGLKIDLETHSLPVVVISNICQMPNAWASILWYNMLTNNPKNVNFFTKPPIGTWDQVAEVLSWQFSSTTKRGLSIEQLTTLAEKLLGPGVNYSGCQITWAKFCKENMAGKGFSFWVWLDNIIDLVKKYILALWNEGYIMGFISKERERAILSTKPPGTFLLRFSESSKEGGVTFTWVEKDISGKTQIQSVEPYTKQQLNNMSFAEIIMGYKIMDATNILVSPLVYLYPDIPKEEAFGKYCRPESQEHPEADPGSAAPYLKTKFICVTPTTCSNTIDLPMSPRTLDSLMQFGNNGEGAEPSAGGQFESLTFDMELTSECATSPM

Row | Ki | Structure (SMILES)
1 | 190 nM | NC(=O)CC[C@H](NC(=O)CN1CCCC[C@H](NC(=O)[C@H](Cc2ccc(OP(=O)(O)O)cc2)NC(=O)OCc2ccccc2)C1=O)C(=O)NCc1ccccc1
2 | 3130 nM | NC(=O)CC[C@H](NC(=O)CN1CCC[C@H](NC(=O)[C@H](Cc2ccc(OP(=O)(O)O)cc2)NC(=O)OCc2ccccc2)C1=O)C(=O)NCc1ccccc1
3 | 350 nM | CC(C)C[C@H](NC(=O)[C@H](Cc1ccc(OP(=O)(O)O)cc1)NC(=O)OCc1ccccc1)C(=O)N1CCC[C@H]1C(=O)N[C@@H](CCC(N)=O)C(=O)NCc1ccccc1 (Cbz-[pY]LPQ-NHBn)

Source: ChEMBL document CHEMBL1153323, “Design, synthesis, and evaluation of peptidomimetics containing Freidinger lactams as STAT3 inhibitors” (Bioorg Med Chem Lett, 2009)
